The text below walks through data of patent US5654290A, “Polyunsaturated fatty acid based drugs” (Institut National de la Sante et de la Recherche Medicale, priority 1992, dated 1997).

The structures appear in SMILES notation. Where “and” joins values, the source holds several entries; their conditions need not be identical. Identical values can stand only once. Like-named read-outs stand apart in the source and are kept apart here.

Data set [1] addresses T1, TXA2 /PGH2 receptor of the platelet membranes (Homo sapiens, UniProt P21731).
T1 construct: TXA2 /PGH2 receptor, to platelet membranes whose PC's or PE's are enriched either in 18:2n-6 or in DHA; from tissue; host or cells: platelet membranes (phospholipids exchanged with maize or endogenous platelet transfer protein)
T1 sequence (P21731 1-343): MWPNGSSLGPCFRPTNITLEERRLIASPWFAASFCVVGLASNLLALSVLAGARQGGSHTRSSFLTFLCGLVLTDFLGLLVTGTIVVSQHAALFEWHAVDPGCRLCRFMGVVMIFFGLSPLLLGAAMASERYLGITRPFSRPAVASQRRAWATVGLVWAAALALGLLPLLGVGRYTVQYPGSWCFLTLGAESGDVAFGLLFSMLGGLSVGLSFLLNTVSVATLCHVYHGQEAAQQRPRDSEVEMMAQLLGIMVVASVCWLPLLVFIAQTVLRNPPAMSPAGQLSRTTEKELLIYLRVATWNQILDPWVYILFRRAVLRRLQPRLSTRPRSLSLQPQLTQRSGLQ
Briefly: Specific binding of tritiated SQ29,548 to the TXA2/PGH2 receptor of platelet membranes whose PC's or PE's are enriched in 18:2n-6 or DHA. The settings on record: for effect on the TXA2 /PGH2 receptor (dissociation constant of SQ29.548): platelet membranes enriched, in words. On the procedure: The diacyl-glycerophosphocholines of the platelet membranes were replaced either with 1-palmitoyl-2-docosa-hexaenoyl-glycerophosphocholine (bars with vertical stripes, "22:6n-3"), or with 1-palmitoyl-2-linoloyl-glycerophosphocholine (bars with horizontal stripes, "18:2n-6"), using the endogenous transfer protein of the platelets which is specific for the phosphatidylinositols and phosphatidylcholines. The control platelet membranes (black bars, "control") are obtained by incubation without addition of phospholipids. The data for the graph represent the mean±S.D. of three independent tests.
The diacyl-glycerophosphoethanolamines of the platelet membranes were replaced either with 1-palmitoyl-2-docosahexaenoyl-glycerophosphoethanolamine (bars with vertical stripes, "22:6n-3"), or with 1-palmitoyl-2-linoloyl-glycerophosphoethanolamine (bars with horizontal stripes "18:2n-6"), using the lipid transfer protein purified from maize. The control platelet membranes (black bars, "control") are obtained by incubation without addition of phospholipids. The data for the graph represent the mean±S.D. of three independent tests.
Preparations of esterified DHA into various classes of phospholipids were carried out using phospholipid transfer proteins in order to enrich, in a specific manner, the phosphatidylcholines (PC) and the phosphatidylethanolamines (PE) of the platelet membranes in linoleic acid (18:2n-6) and in DHA (49). In particular, the transfer protein (PT), which is specific for the PC's and purified from bovine liver, was used to modify the composition of molecular species of the PC's of erythrocytes (49).
In the procedure used in the present example, the endogenous quantity of platelet phospholipids is not altered by the transfer carried out by means of the maize or platelet PT; nevertheless, the phospholipids were enriched in 18:2n-6 or in DHA.
The influence of the fatty acids on the TXA2 /PGH2 receptor was established by measuring the specific binding of tritiated SQ29,548, a competitive antagonist of the TXA2 /PGH2 receptor, to platelet membranes whose PC's or PE's are enriched either in 18:2n-6 or in DHA.

The test system of another data set is brain. The data set is described as follows: Distribution of the radioactivity between the lipid classes of the brain after intravenous injection of lyso-PCDHA or non-esterified DHA. The settings on record: injection of non-esterified DHA. Format: in vivo, rat. An excerpt: (§1) The animal studied is a 20-day-old rat in which the cerebral lipid metabolism is at its peak.
(§2) The lyso-PC's are labelled on the fatty acid and the choline, attached to albumin and administered intravenously (50). […] It therefore appears that the lyso-PCDHA's attached to albumin constitute a particularly preferred form of supply of DHA to the developing brain.

The next data set relates to kidney. The data set is described as follows: Capture by the kidney, in rats, of lyso-PCDHA and non-esterified DHA. It is filed as in vivo. The settings on record: 20-day-old rat, intravenous; lyso-PCDHA vs non-esterified DHA.
Text: FIG. 3 represents the variation of the radio-activity recovered in the total lipids: A from the brain, B from the kidney, C from the heart and D from the liver, after injecting tritiated DHA in free form (black circle) or in the form of 2-DHA-1-lyso-PC (black triangle).
as §1, §2

Where [2] appears, read: individual test, platelet membranes, PC's enriched.
The mark [3] stands for this setting: mean of three tests, PC's enriched.
The mark [4] stands for this setting: individual test, platelet membranes, PE's enriched.
Setting [5] is: individual test, platelet membranes, PE's enriched, read-out: Kd of SQ 29.548.
Setting [6] is: mean of three tests, PE's enriched.
[7] abbreviates: mean of three tests, PE's enriched, read-out: Kd of SQ 29.548.

As for `CCCCC/C=C\C/C=C\CCCCCCCC(=O)OC(COC(=O)CCCCCCCCCCCCCCC)COP(=O)([O-])OCC[N+](C)(C)C` (stereo not shown) [PC 18:2n-6, 1-palmitoyl-2-linoloyl-glycerophosphocholine], the Kd was 4.64 nM and 3.16 nM and 4.05 nM in data set [1] (Kd of SQ 29.548, individual test, platelet membranes, PC's enriched); 3.95 ± 0.75 nM in data set [1] (Kd of SQ 29.548, mean of three tests, PC's enriched, (a) p < 0.05 compared with the control and with PC 18:2n6 for PC 22:6n-3). Moreover, the “Bmax of SQ 29.548” value was 1.83 pmol/mg prot. and 1.91 pmol/mg prot. and 2.41 pmol/mg prot in data set [1] (setting [2]); 2.05 ± 0.31 pmol/mg prot in data set [1] (setting [3]). For the same molecule, the “Hill Coefficient” value was 1.00 and 0.94 and 0.90 in data set [1] (setting [2]); 0.95 ± 0.05 in data set [1] (setting [3]). Also, in data set [1], the “effect on the TXA2 /PGH2 receptor (dissociation constant of SQ29.548)” value (shortened to “effect on the TXA2 /PGH2 receptor”) was “no effect on the receptor”.
With `CC/C=C\C/C=C\C/C=C\C/C=C\C/C=C\C/C=C\CCC(=O)OC(COC(=O)CCCCCCCCCCCCCCC)COP(=O)([O-])OCC[N+](C)(C)C` (stereo not shown) [PC 22:6n-3, 1-palmitoyl-2-docosahexaenoyl-glycerophosphocholine], the “Bmax of SQ 29.548” value in data set [1] (setting [2]) was 2.94 pmol/mg prot. and 2.09 pmol/mg prot. and 2.40 pmol/mg prot; in data set [1] (setting [3]) it was 2.48 ± 0.43 pmol/mg prot. Further, the “Hill Coefficient” value in data set [1] (setting [2]) is 0.91 and 1.00 and 0.94; in data set [1] (setting [3]) it was 0.95 ± 0.05. Further, the dissociation constant (Kd) in data set [1] (individual test, platelet membranes, PC's enriched, read-out: Kd of SQ 29.548) was 5.69 nM and 8.56 nM and 7.05 nM; in data set [1] (mean of three tests, PC's enriched, (a) p < 0.05 compared with the control and with PC 18:2n6 for PC 22:6n-3, read-out: Kd of SQ 29.548), 7.1 ± 1.44 nM. Further, in data set [1], the “effect on the TXA2 /PGH2 receptor” value is “significantly increasing the dissociation constant of SQ29.548”.
`CCCCC/C=C\C/C=C\CCCCCCCC(=O)OC(COC(=O)CCCCCCCCCCCCCCC)COP(=O)(O)OCCN` (stereo not shown) [PE 18:2n-6, 1-palmitoyl-2-linoloyl-glycerophosphoethanolamine]: the “Bmax of SQ 29.548” value in data set [1] (setting [4]) was 1.89 pmol/mg prot. and 2.26 pmol/mg prot. and 2.07 pmol/mg prot; in data set [1] (setting [6]), 2.07 ± 0.19 pmol/mg prot. Further, the “Hill Coefficient” value was 0.94 and 1.00 and 1.05 in data set [1] (setting [4]); 1.00 ± 0.06 in data set [1] (setting [6]). The dissociation constant Kd in data set [1] (setting [5]) was 3.11 nM and 4.31 nM and 4.92 nM; in data set [1] (setting [7]), 4.11 ± 0.92 nM. Further, the “effect on the TXA2 /PGH2 receptor” value in data set [1] is reported as “no effect on the receptor”.
For `CC/C=C\C/C=C\C/C=C\C/C=C\C/C=C\C/C=C\CCC(=O)OC(COC(=O)CCCCCCCCCCCCCCC)COP(=O)(O)OCCN` (stereo not shown) [PE 22:6n-3, 1-palmitoyl-2-docosahexaenoyl-glycerophosphoethanolamine], the “Bmax of SQ 29.548” value in data set [1] (setting [4]) was 1.67 pmol/mg prot. and 1.99 pmol/mg prot. and 1.91 pmol/mg prot; in data set [1] (setting [6]), 1.86 ± 0.17 pmol/mg prot. The “Hill Coefficient” value is 0.95 and 1.02 in data set [1] (setting [4]); 1.00 ± 0.04 in data set [1] (setting [6]). The dissociation constant Kd in data set [1] (setting [5]) was 2.92 nM and 4.61 nM and 4.63 nM; in data set [1] (setting [7]), 4.05 ± 0.98 nM. The “effect on the TXA2 /PGH2 receptor” value in data set [1] is listed as “no effect on the receptor”.
Turning to `CC/C=C\C/C=C\C/C=C\C/C=C\C/C=C\C/C=C\CCC(=O)O` [non-esterified DHA, docosahexaenoic acid, reference compound], the “radioactivity in LN + AG of the brain” value with brain (2.5 min) is 36.7 % of the radioactivity of the total lipids; in the data set with brain (5 min), 19.0 % of the radioactivity of the total lipids; with brain (7.5 min), 30.0 % of the radioactivity of the total lipids; in the data set with brain (8 min), 31.6 % of the radioactivity of the total lipids; in the data set with brain (15 min), 20.8 % of the radioactivity of the total lipids; in the data set with brain (30 min) it was 20.4 % of the radioactivity of the total lipids. Moreover, in the data set on brain (60 min), the “radioactivity in LN + AG of the brain” value is 12.5 % of the radioactivity of the total lipids. In addition, the “radioactivity in PC of the brain” value with brain (2.5 min) is reported as 18.8 % of the radioactivity of the total lipids; in the data set with brain (5 min) it was 23.2 % of the radioactivity of the total lipids; in the data set on brain (7.5 min) it was 21.1 % of the radioactivity of the total lipids; in the data set with brain (8 min), 19.6 % of the radioactivity of the total lipids; in the data set on brain (15 min), 25.7 % of the radioactivity of the total lipids; in the data set with brain (30 min), 24.8 % of the radioactivity of the total lipids. In the data set with brain (60 min), the “radioactivity in PC of the brain” value is listed as 24.3 % of the radioactivity of the total lipids. Also, the “radioactivity in PE of the brain” value was 37.5 % of the radioactivity of the total lipids in the data set with brain (2.5 min); 48.1 % of the radioactivity of the total lipids with brain (5 min); 44.4 % of the radioactivity of the total lipids with brain (7.5 min); 40.7 % of the radioactivity of the total lipids in the data set with brain (8 min); 49.1 % of the radioactivity of the total lipids in the data set on brain (15 min); 48.4 % of the radioactivity of the total lipids with brain (30 min). The “radioactivity in PE of the brain” value in the data set on brain (60 min) is given as 54.1 % of the radioactivity of the total lipids. Moreover, the “radioactivity in PI of the brain” value is listed as 2.7 % of the radioactivity of the total lipids with brain (2.5 min); 5.1 % of the radioactivity of the total lipids in the data set with brain (5 min); 2.6 % of the radioactivity of the total lipids in the data set on brain (7.5 min); 3.8 % of the radioactivity of the total lipids in the data set on brain (8 min); 3 % of the radioactivity of the total lipids in the data set with brain (15 min); 3.4 % of the radioactivity of the total lipids with brain (30 min). Further, in the data set on brain (60 min), the “radioactivity in PI of the brain” value was 2.8 % of the radioactivity of the total lipids. For the same molecule, the “radioactivity in PS of the brain” value in the data set with brain (2.5 min) is 4.0 % of the radioactivity of the total lipids; in the data set with brain (5 min), 4.6 % of the radioactivity of the total lipids; with brain (7.5 min) it was 1.8 % of the radioactivity of the total lipids; in the data set on brain (8 min), 4.3 % of the radioactivity of the total lipids; with brain (15 min), 2.9 % of the radioactivity of the total lipids; with brain (30 min), 2.9 % of the radioactivity of the total lipids. Besides, the “radioactivity in PS of the brain” value in the data set with brain (60 min) is given as 6.3 % of the radioactivity of the total lipids. In addition, the “capture by the kidney” value in the data set with kidney was “captures the two forms of supply in essentially the same manner”.

As a reminder, the Kd is the equilibrium constant for the complex coming apart.
